The source of these data is patent publication US20050054620A1, “Paricalcitol as a chemotherapeutic agent” (priority 2003, published 2005).

Series [1] deals with T1, 24-hydroxylase (Homo sapiens, UniProt Q07973).
T1 sequence (Q07973 36-514): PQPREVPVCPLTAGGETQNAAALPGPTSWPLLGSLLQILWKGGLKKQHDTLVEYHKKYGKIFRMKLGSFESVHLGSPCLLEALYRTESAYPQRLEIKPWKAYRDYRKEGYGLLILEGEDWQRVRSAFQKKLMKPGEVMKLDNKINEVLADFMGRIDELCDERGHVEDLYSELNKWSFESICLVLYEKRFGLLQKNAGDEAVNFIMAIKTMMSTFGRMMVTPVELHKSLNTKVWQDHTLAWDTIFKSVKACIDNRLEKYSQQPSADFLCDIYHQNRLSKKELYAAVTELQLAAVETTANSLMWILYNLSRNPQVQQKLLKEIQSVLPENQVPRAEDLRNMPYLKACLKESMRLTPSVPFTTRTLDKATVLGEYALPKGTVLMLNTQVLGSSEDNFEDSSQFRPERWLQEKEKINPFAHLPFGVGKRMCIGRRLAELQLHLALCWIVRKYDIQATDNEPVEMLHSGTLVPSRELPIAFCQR
The series is described as follows: 24-hydroxylase activity by level of 24.25(OH)2D3 in HL-60 cells. Also noted: endogenous in cells; host or cells: HL-60. The conditions noted are these: paricalcitol 0.01 μM, arsenic trioxide 0.8 μM, 3 days. The series is classed as cell-based. As for the experimental part: (§1) HL-60 (A) and NB-4 (B) myeloid leukemia cell lines were treated with paricalcitol (0.01 μM for HL-60, 0.1 μM for NB-4) and/or arsenic trioxide (0.8 μM for HL-60, 0.6 μM for NB-4) for 3 days. Control cells were treated with vehicle alone. The levels of 24.25(OH)2D3 were measured by HPLC analysis.
(§2) The possibility that the arsenic trioxide inactivates the mitchondrial enzyme, 24-hydroxylase leading to an activation of the response of the cells to vitamin D was tested. The activity of 24-hydroxylase was examined by measuring its metabolite, 24.25(OH)2D3 by TLC analysis in leukemia cells. HL-60 and NB-4 myeloid leukemia cell lines were treated with paricalcitol (0.01 μM for HL-60, 0.1 μM for NB-4) and/or arsenic trioxide (0.8 μM for HL-60, 0.6 μM for NB-4) for 3 days. Control cells were treated with vehicle alone. Then the levels of 24.25(OH)2D3 were measured by TLC analysis. Paricalcitol alone increased the levels of 24.25(OH)2D3 in HL-60 and NB-4, while arsenic trioxide alone decreased its level compared to control cells (FIG. 11). […] The decrease of the levels of 24-hydroxylase by arsenic trioxide may explain the enhanced activity of paricalcitol by arsenic trioxide in leukemia cells.

The next series has as its system NCI-H929 cells. In words: TUNEL assay of apoptosis. The series is classed as cell-based, human. The settings on record: for apoptotic cells by TUNEL assay: 0.01 μM each, 3 days. As for the experimental part:
In FIG. […] Results represent the mean±SD of three independent experiments. A TUNEL assay was performed for immunohistochemical detection and quantification of programmed cell death at the single cell level, based on labeling of DNA strand breaks using the In Situ Cell Death Detection, POD (Roche, Indianapolis, Ind.). Early apoptosis was also detected by measuring annexin V protein in the cell membrane using Annexin V-FITC Kit (CLONTECH, Palo Alto, Calif.) followed by flow cytometric analysis.

The subject of another series is NCI-H929 myeloma cells. The settings on record: 4 days exposure.
The test system of series [2] is mononuclear bone marrow cells from wild type (WT) mice. The series is described as follows: Colony-forming assay in methylcellulose, wild type mice. It counts as cell-based. The conditions noted are these: 10^−8 M. From the text:
In FIG. 6D, colony formation by mononuclear bone marrow cells from VDR knock-out (VDR-KO) and wild type (WT) mice is shown. Mononuclear cells were obtained from femoral bone marrow plugs and grown in methylcellulose culture media with either paricalcitol (10^−8M) or diluant. Colonies were counted on day 10 of culture. The number of total colonies (average) were 87 (control) and 66 (paricalcitol 10^−8M) in wild type mice, and 110 (control) and 122 (paricalcitol 10^−8M) in VDR-KO mice. The percentage of macrophage, granulocyte and mixed granulocyte/macrophage colonies are shown. Triplicate wells for each mouse and a total of three KO and three WT mice were studied. G, granulocyte colonies; G/M mixed granulocyte/macrophage colonies; M, macrophage colonies.
The VDR KO Mouse and Colony-Forming Assay was performed as follows. VDR KO mice were generated and genotypes were determined by Southern Blot Analysis as described previously (O'Kelly et al., supra, 2002). For experiments using VDR KO mice, their wild-type (WT) littermates were used as controls. Mice were killed by cervical neck dislocation. Bone marrow was flushed out of isolated femurs with (a-MEM; Gibco BRL, Grand Island, N.Y., USA) including 10% FCS using a 26-gauge needle. Isolated spleens were injected with DMEM (Gibco BRL) plus 10% FCS and crushed with forceps to release cells. Mononuclear cells from bone marrow or spleen were separated by Ficoll-Hypaque density centrifugation (Amersham Pharmacia, Uppsala, Sweden). Resuspended mononuclear bone marrow cells (2×10^4 cells/ml) and growth factors were added 1:10 to methylcellulose medium M3234 (StemCell Technologies Inc., Vancouver, British Columbia, Canada) to yield a final concentration of 1% methylcellulose, 30% FCS, 1% BSA, 10^-4M mercaptoethanol, and 2 mM L-glutamine as described previously (19). Cells were plated in six-well plates in a volume of 1 ml and incubated at 37° C. in a humidified atmosphere containing 5% CO2. Colonies were counted after 2 weeks. Colony type was established by morphology; and to ensure accurate determination, representative colonies were plucked from the plates, centrifuged onto slides, stained with Wright-Giemsa stain and examined by light microscopy.

The conditions of series [3]: humans, cited from earlier work.
The target in series [4] is T1, 24-hydroxylase. In words: 24-hydroxylase activity by level of 24.25(OH)2D3 in NB-4 cells. The series is classed as cell-based. Also noted: endogenous in cells. The conditions noted are these: paricalcitol 0.1 μM, arsenic trioxide 0.6 μM, 3 days. As for the experimental part:
as §1, §2

The test system of the next series is HL-60 cells. The series is described as follows: CD14 expression by flow cytometry. It counts as cell-based, human. The settings on record: for cell surface CD14 expression: paricalcitol 0.01 μM, arsenic trioxide 0.8 μM, 3 days. As for the experimental part: In order to measure cell surface CD14 antigen on HL-60 cells, promyelocytic leukemia cell line, HL-60, was treated with either 1,25(OH)2D3 or paricalcitol (10^−7M) for 4 days and examined for CD14 expression by flow cytometry using CD14 antibody (DAKO, Carpinteria, Calif.), as described previously (Hisatake et al., supra, 2001). Murine IgG1 antibody (DAKO) was used as a control.
Measurement of cell surface CD14 antigen on HL-60 cells by flow cytometry using CD14 antibody (DAKO, Carpinteria, Calif.), was determined as described previously (Hisatake et al. Blood 97:2427-2433 (2001)). Murine IgG1 antibody (DAKO) was used as a control.
In general terms: Flow cytometry measures light scatter and fluorescence of single cells or particles in a stream.

`C[C@H](/C=C/[C@H](C)C(C)(C)O)[C@H]1CC[C@H]2/C(=C/C=C3C[C@@H](O)C[C@H](O)C3)CCC[C@]12C` [paricalcitol, 19-nor-1,25, (OH)2D3]: the “levels of 24.25(OH)2D3” value at 24-hydroxylase [1] and on 24-hydroxylase [4] was “increased” in each case. Moreover, the “apoptotic cells by TUNEL assay” value with NCI-H929 cells is recorded as “increased”. Also, the “apoptotic cells (TUNEL)” value with NCI-H929 cells (10^−7M, 96 hrs, diluant control 4%) was determined as 31%. Also, in the series on NCI-H929 myeloma cells, the “antiproliferative effect by MTT assay” value is given as “sensitive”. The “percentage of granulocyte colonies” value in series [2] (control 23±4%) was found to be 6±3%. Also, in series [2] (control 32±4%), the “percentage of macrophage colonies” value worked out at 69±2%. The “percentage of mixed colonies” value in series [2] (control 43±7%) is on record as 25±5%. Further, the “number of total colonies (average)” value in series [2] (control 87) was determined as 66. Moreover, the peak serum levels in series [3] is 1850 pg/mL. Also, the serum half-life result in series [3] (paricalcitol compared with 1,25(OH)2D3) is reported as “similar”. The “cells induced to express CD14” value in the series on HL-60 cells (10^−7M, 96 hrs) amounted to 65%. In the series with HL-60 cells, the “cell surface CD14 expression” value was “increased cell surface CD14”.
With arsenic trioxide, the “levels of 24.25(OH)2D3” value on 24-hydroxylase [1] and on 24-hydroxylase [4] was “decreased” in each case. The “apoptotic cells by TUNEL assay” value in the series on NCI-H929 cells is listed as “increased”. The “cell surface CD14 expression” value in the series with HL-60 cells is recorded as “did not”.
